# Measurements as given in patent publication US10889565B2, “4-hydroxy-3-sulfonylpyridin-2(1H)-ones as APJ receptor agonists” (BRISTOL-MYERS SQUIBB COMPANY, priority 2016, dated 2021).
# pEC50: −log10 of the molar value.
# Molecular target: T1, human APJ receptor (Homo sapiens, UniProt P35414)
# T1 construct: expressed in transfected cells
# T1 sequence (P35414 1-380): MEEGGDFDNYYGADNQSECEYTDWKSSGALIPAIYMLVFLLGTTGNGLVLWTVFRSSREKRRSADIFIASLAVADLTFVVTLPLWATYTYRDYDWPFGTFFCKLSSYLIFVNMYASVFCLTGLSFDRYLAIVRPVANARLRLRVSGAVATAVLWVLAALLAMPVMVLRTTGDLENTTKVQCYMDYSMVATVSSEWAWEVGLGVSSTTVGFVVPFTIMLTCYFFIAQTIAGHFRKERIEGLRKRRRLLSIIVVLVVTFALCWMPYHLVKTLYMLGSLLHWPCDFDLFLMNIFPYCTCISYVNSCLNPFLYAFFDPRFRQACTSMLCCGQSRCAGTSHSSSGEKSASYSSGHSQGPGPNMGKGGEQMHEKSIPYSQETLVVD
# Test: Intracellular cAMP accumulation assay (APJ hcAMP, HTRF)
# Type: cell-based
# Conditions: HEK293 cells stably expressing human APJ receptor; inhibition of forskolin-mediated cAMP production; read-out: Human APJ cAMP EC50 Potency range
# Protocol: Intracellular cAMP Accumulation Assay
# HEK293 cells stably expressing human APJ receptor were used to assess the activity of compounds. Cultured cells were detached and resuspended in the cAMP Homogeneous Time-Resolved Fluorescence (HTRF) assay buffer (Cisbio cat; #62AM4PEJ). The assay was performed in 384-well assay plates (Perkin-Elmer; cat #6008289) according to assay protocol provided by the manufacturer. Serial dilutions of a compound together with assay buffer containing […] IBMX and 2 μM forskolin were added to each well containing 5,000 cells and incubated for 30 minutes at room temperature. Subsequently, cAMP D2 reagent was added in the lysis buffer followed by the EuK antibody (Cisbio; cat #62AM4PEJ) and incubated for 60 min. The fluorescence emission ratio was measured using fluorometer. The intracellular cAMP concentrations (compound-stimulated inhibition of forskolin-mediated cAMP production) were calculated by extrapolation from a standard curve using known cAMP concentrations. The EC50 values were obtained by fitting the data to a sigmoidal concentration-response curve with variable slope. The maximal achievable inhibition of forskolin-induced cAMP levels (Ymax) for each compound was expressed as relative percentage of inhibition attained using pyroglutamated apelin-13 ((Pyr1)apelin-13) peptide, which was set to 100%.
# The examples disclosed below were tested in the APJ in vitro assays described above and were found having human APJ cyclic AMP (hcAMP) activity. The EC50 value of each compound is presented at the end of the example description.
# The biological activity of the exemplified compounds of this invention determined by the assay described above is shown at the end of each example.
row,Compound,pEC50
1,"CCCCc1[nH]c(=O)c(S(=O)(=O)c2ccccc2Br)c(O)c1-c1c(OC)cccc1OC [Example 15, 3-((2-bromophenyl)sulfonyl)-6-butyl-5-(2,6-dimethoxy-phenyl)-4-hydroxy-pyridin-2(1H)-one]",7.00 to 8.00
2,"CCCCc1[nH]c(=O)c(S(=O)(=O)c2nnc[nH]2)c(O)c1-c1c(OC)cccc1OC [Example 48, 3-((4H-1,2,4-triazol-3-yl)sulfonyl)-6-butyl-5-(2,6-dimethoxy-phenyl)-4-hydroxy-pyridin-2(1H)-one]",7.00 to 8.00
3,"CCOCc1[nH]c(=O)c(S(=O)(=O)c2ccc(-n3cc(Cl)cc(Cl)c3=O)cc2)c(O)c1-c1c(OC)cccc1OC [Example 25, 3-((4-(3,5-dichloro-2-oxopyridin-1(2H)-yl)phenyl)sulfonyl)-5-(2,6-dimethoxy-phenyl)-6-(ethoxymethyl)-4-hydroxy-pyridin-2(1H)-one]",7.00 to 8.00
4,"CCOCc1[nH]c(=O)c(S(=O)(=O)c2ccc(Br)cc2)c(O)c1-c1c(OC)cccc1OC [Example 14, 3-((4-bromophenyl)sulfonyl)-5-(2,6-dimethoxy-phenyl)-6-(ethoxymethyl)-4-hydroxy-pyridin-2(1H)-one]",7.00 to 8.00
5,"CCCCc1[nH]c(=O)c(S(=O)(=O)c2ccc(-c3ccc(F)nc3C)cc2)c(O)c1-c1c(OC)cccc1OC [Example 5, 6-butyl-5-(2,6-dimethoxy-phenyl)-3-((4-(6-fluoro-2-methyl-pyridin-3-yl)phenyl)sulfonyl)-4-hydroxy-pyridin-2(1H)-one]",8.00 to 11.00
6,"CCCCc1[nH]c(=O)c(S(=O)(=O)c2ccc(NC(=O)Nc3ccc(F)cc3)cc2)c(O)c1-c1c(OC)cccc1OC [Example 31, 1-(4-((6-butyl-5-(2,6-dimethoxyphenyl)-4-hydroxy-2-oxo-1,2-dihydropyridin-3-yl)sulfonyl)phenyl)-3-(4-fluorophenyl)urea]",8.00 to 11.00
7,"CCCCc1[nH]c(=O)c(S(=O)(=O)c2ccccc2)c(O)c1-c1c(OC)cccc1OC [Example 10, 6-butyl-5-(2,6-dimethoxy-phenyl)-4-hydroxy-3-(phenyl-sulfonyl) pyridin-2(1H)-one]",8.00 to 11.00
8,"CCCCc1[nH]c(=O)c(S(=O)(=O)c2ccc(-c3ccc(C(=O)NC4CC4)cc3)cn2)c(O)c1-c1c(OC)cccc1OC [Example 45, 4-(6-((6-butyl-5-(2,6-dimethoxy-phenyl)-4-hydroxy-2-oxo-1,2-dihydro-pyridin-3-yl)sulfonyl)pyridin-3-yl)-N-cyclopropyl-benzamide]",8.00 to 11.00
9,"CCOCc1[nH]c(=O)c(S(=O)(=O)c2ccc(-n3cc(Cl)ccc3=O)cc2)c(O)c1-c1c(OC)cccc1OC [Example 21, 3-((4-(5-chloro-2-oxopyridin-1(2H)-yl)phenyl)sulfonyl)-5-(2,6-dimethoxy-phenyl)-6-(ethoxymethyl)-4-hydroxy-pyridin-2(1H)-one]",8.00 to 11.00
10,"CCCCc1[nH]c(=O)c(S(=O)(=O)c2ccc(-c3ccc(F)nc3C)cn2)c(O)c1-c1c(OC)cccc1OC [Example 41, 6-butyl-5-(2,6-dimethoxy-phenyl)-3-((6′-fluoro-2′-methyl-[3,3′-bipyridin]-6-yl)sulfonyl)-4-hydroxypyridin-2(1H)-one]",8.00 to 11.00
11,"CCCCc1[nH]c(=O)c(S(=O)(=O)c2ccc(-c3ccc(F)cc3)cc2)c(O)c1-c1c(OC)cccc1OC [Example 13, 6-butyl-5-(2,6-dimethoxy-phenyl)-3-((4′-fluoro-[1,1′-biphenyl]-4-yl)sulfonyl)-4-hydroxy-pyridin-2(1H)-one]",7.00 to 8.00
12,"CCCCc1[nH]c(=O)c(S(=O)(=O)c2ccc(-c3ccnc(N4CCOCC4)c3F)cn2)c(O)c1-c1c(OC)cccc1OC [Example 40, 6-butyl-5-(2,6-dimethoxy-phenyl)-3-((3′-fluoro-2′-morpholino-[3,4′-bipyridin]-6-yl)sulfonyl)-4-hydroxypyridin-2(1H)-one]",8.00 to 11.00

# Continued, values first:
row,pEC50,Compound
1,8.00 to 11.00,"CCCCc1[nH]c(=O)c(S(=O)(=O)c2ccc(C3CC3)cc2)c(O)c1-c1c(OC)cccc1OC [Example 7, 6-butyl-3-((4-cyclo-propylphenyl)sulfonyl)-5-(2,6-dimethoxy-phenyl)-4-hydroxy-pyridin-2(1H)-one]"
2,8.00 to 11.00,"CCCCc1[nH]c(=O)c(S(=O)(=O)c2ccc(-c3ccc(F)cc3C)cn2)c(O)c1-c1c(OC)cccc1OC [Example 36, 6-butyl-5-(2,6-dimethoxy-phenyl)-3-((5-(4-fluoro-2-methylphenyl)pyridin-2-yl)sulfonyl)-4-hydroxy-pyridin-2(1H)-one]"
3,8.00 to 11.00,"CCCCc1[nH]c(=O)c(S(=O)(=O)c2ccc(Nc3ccc(F)nc3)cc2)c(O)c1-c1c(OC)cccc1OC [Example 28, 6-butyl-5-(2,6-dimethoxyphenyl)-3-((4-((6-fluoropyridin-3-yl)amino)phenyl)sulfonyl)-4-hydroxypyridin-2(1H)-one]"
4,8.00 to 11.00,"CCOCc1[nH]c(=O)c(S(=O)(=O)c2ccc(-n3ccccc3=O)cc2)c(O)c1-c1c(OC)cccc1OC [Example 26, 5-(2,6-dimethoxy-phenyl)-6-(ethoxymethyl)-4-hydroxy-3-((4-(2-oxopyridin-1(2H)-yl)phenyl)sulfonyl) pyridin-2(1H)-one]"
5,8.00 to 11.00,"CCCCc1[nH]c(=O)c(S(=O)(=O)c2ccc(-c3ccnc4[nH]ccc34)cn2)c(O)c1-c1c(OC)cccc1OC [Example 47, 3-((5-(1H-pyrrolo[2,3-b]pyridin-4-yl)pyridin-2-yl)sulfonyl)-6-butyl-5-(2,6-dimethoxy-phenyl)-4-hydroxy-pyridin-2(1H)-one]"
6,8.00 to 11.00,"CCCCc1[nH]c(=O)c(S(=O)(=O)c2ccc(-c3ccc(F)cc3)cn2)c(O)c1-c1c(OC)cccc1OC [Example 43, 6-butyl-5-(2,6-dimethoxy-phenyl)-3-((5-(4-fluorophenyl)pyridin-2-yl)sulfonyl)-4-hydroxypyridin-2(1H)-one]"
7,8.00 to 11.00,"CCCCc1[nH]c(=O)c(S(=O)(=O)c2ccc(-c3ccccc3C)cn2)c(O)c1-c1c(OC)cccc1OC [Example 37, 6-butyl-5-(2,6-dimethoxy-phenyl)-4-hydroxy-3-((5-(o-tolyl)pyridin-2-yl)sulfonyl) pyridin-2(1H)-one]"
8,8.00 to 11.00,"COc1cccc(OC)c1-c1c(-c2ccc(F)cc2)[nH]c(=O)c(S(=O)(=O)c2ccc(-n3cc(Cl)ccc3=O)cc2)c1O [Example 23, 3-((4-(5-chloro-2-oxopyridin-1(2H)-yl)phenyl)sulfonyl)-5-(2,6-dimethoxy-phenyl)-6-(4-fluorophenyl)-4-hydroxy-pyridin-2(1H)-one]"
9,8.00 to 11.00,"CCCCc1[nH]c(=O)c(S(=O)(=O)c2ccc(-c3cccnc3OC)cc2)c(O)c1-c1c(OC)cccc1OC [Example 2, 6-butyl-5-(2,6-dimethoxy-phenyl)-4-hydroxy-3-((4-(2-methoxy-pyridin-3-yl)phenyl)sulfonyl) pyridin-2(1H)-one]"
10,8.00 to 11.00,"CCOCc1[nH]c(=O)c(S(=O)(=O)c2ccc(-c3ccc(F)nc3)cc2)c(O)c1-c1c(OC)cccc1OC [Example 12, 5-(2,6-dimethoxy-phenyl)-6-(ethoxymethyl)-3-((4-(6-fluoro-pyridin-3-yl)phenyl)sulfonyl)-4-hydroxy-pyridin-2(1H)-one]"
11,8.00 to 11.00,"CCCCc1[nH]c(=O)c(S(=O)(=O)c2ccc(-c3ccncc3C)cn2)c(O)c1-c1c(OC)cccc1OC [Example 34, 6-butyl-5-(2,6-dimethoxy-phenyl)-4-hydroxy-3-((3′-methyl-[3,4′-bipyridin]-6-yl)sulfonyl) pyridin-2(1H)-one]"
12,8.00 to 11.00,"CCCCc1[nH]c(=O)c(S(=O)(=O)c2ccc(-c3ccnc(OC)c3)cn2)c(O)c1-c1c(OC)cccc1OC [Example 44, 6-butyl-5-(2,6-dimethoxy-phenyl)-4-hydroxy-3-((2′-methoxy-[3,4′-bipyridin]-6-yl)sulfonyl) pyridin-2(1H)-one]"
13,8.00 to 11.00,"CCCCc1[nH]c(=O)c(S(=O)(=O)c2ccc(NC(=O)c3ccc(F)cc3)cc2)c(O)c1-c1c(OC)cccc1OC [Example 30, N-(4-((6-butyl-5-(2,6-dimethoxyphenyl)-4-hydroxy-2-oxo-1,2-dihydropyridin-3-yl)sulfonyl)phenyl)-4-fluorobenzamide]"
14,8.00 to 11.00,"CCCCc1[nH]c(=O)c(S(=O)(=O)c2ccc(-c3ccc(OC(F)(F)F)cc3)cn2)c(O)c1-c1c(OC)cccc1OC [Example 35, 6-butyl-5-(2,6-dimethoxy-phenyl)-4-hydroxy-3-((5-(4-(trifluoro-methoxy)phenyl)pyridin-2-yl)sulfonyl) pyridin-2(1H)-one]"
15,8.00 to 11.00,"CCCCc1[nH]c(=O)c(S(=O)(=O)c2ccc(Nc3ccc(F)cc3)cc2)c(O)c1-c1c(OC)cccc1OC [Example 29, 6-butyl-5-(2,6-dimethoxyphenyl)-3-((4-((4-fluorophenyl)amino)phenyl)sulfonyl)-4-hydroxypyridin-2(1H)-one]"
